Assay results published in patent publication US10757941B2, “Microbiocidal oxadiazole derivatives” (SYNGENTA PARTICIPATIONS AG, priority 2016, dated 2020).

What was measured:
[1] = test system: Puccinia recondita f. Sp. Tritici; test: Fungicidal activity against Puccinia recondita f. sp. tritici / wheat / leaf disc curative (brown rust); type: in vivo; conditions: foliar, 200 ppm in the applied formulation, wheat leaf segments cv. Kanzler, curative (applied 1 day after inoculation), assessed 6 to 8 days after application, compared to untreated, read-out: disease control
Method: Leaf disks or leaf segments of various plant species are cut from plants grown in a greenhouse. The cut leaf disks or segments are placed in multiwell plates (24-well format) onto water agar. The leaf disks are sprayed with a test solution before (preventative) or after (curative) inoculation. Compounds to be tested are prepared as DMSO solutions (max. 10 mg/ml) which are diluted to the appropriate concentration with 0.025% Tween20 just before spraying. The inoculated leaf disks or segments are incubated under defined conditions (temperature, relative humidity, light, etc.) according to the respective test system. A single evaluation of disease level is carried out 3 to 14 days after inoculation, depending on the pathosystem. Percent disease control relative to the untreated check leaf disks or segments is then calculated. Example 2: Fungicidal Activity Against Puccinia recondita f. Sp. Tritici/Wheat/Leaf Disc Curative (Brown Rust) Wheat leaf segments cv. Kanzler are placed on agar in multiwell plates (24-well format). The leaf segments are then inoculated with a spore suspension of the fungus. Plates were stored in darkness at 19° C. and 75% relative humidity. The formulated test compound diluted in water was applied 1 day after inoculation. The leaf segments were incubated at 19° C. and 75% relative humidity under a light regime of 12 hours light/12 hours darkness in a climate cabinet and the activity of a compound was assessed as percent disease control compared to untreated when an appropriate level of disease damage appears in untreated check leaf segments (6 to 8 days after application). The following compounds at 200 ppm in the applied formulation give at least 80% disease control in this test when compared to untreated control leaf disks under the same conditions, which show extensive disease development.

[2] = test system: Glomerella lagenarium (Colletotrichum lagenarium); test: Fungicidal activity against Glomerella lagenarium (Colletotrichum lagenarium) liquid culture / cucumber / preventative (anthracnose); type: cell-based; conditions: Colletotrichum orbiculare; 20 ppm in the applied formulation; liquid culture in PDB, 24° C.; inhibition of growth measured photometrically 3 to 4 days after application; compared to untreated; read-out: disease control
Method: Mycelia fragments or conidia suspensions of a fungus prepared either freshly from liquid cultures of the fungus or from cryogenic storage, are directly mixed into nutrient broth. DMSO solutions of the test compound (max. 10 mg/ml) are diluted with 0.025% Tween20 by a factor of 50 and 10 μl of this solution is pipetted into a microtiter plate (96-well format). The nutrient broth containing the fungal spores/mycelia fragments is then added to give an end concentration of the tested compound. The test plates are incubated in the dark at 24° C. and 96% relative humidity. The inhibition of fungal growth is determined photometrically after 2 to 7 days, depending on the pathosystem, and percent antifungal activity relative to the untreated check is calculated. Example 4: Fungicidal Activity Against Glomerella lagenarium (Colletotrichum lagenarium) Liquid Culture/Cucumber/Preventative (Anthracnose) Conidia of the fungus from cryogenic storage are directly mixed into nutrient broth (PDB—potato dextrose broth). After placing a (DMSO) solution of test compound into a microtiter plate (96-well format), the nutrient broth containing the fungal spores is added. The test plates are incubated at 24° C. and the inhibition of growth is measured photometrically 3 to 4 days after application. The following compounds at 20 ppm in the applied formulation give at least 80% disease control in this test when compared to untreated control under the same conditions, which show extensive disease development.

[3] = test system: Puccinia recondita f. Sp. Tritici; test: Fungicidal activity against Puccinia recondita f. sp. tritici / wheat / leaf disc preventative (brown rust); type: in vivo; conditions: foliar, 200 ppm in the applied formulation, wheat leaf segments cv. Kanzler, preventative (inoculated 1 day after application), assessed 7 to 9 days after application, compared to untreated, read-out: disease control
Method: Leaf disks or leaf segments of various plant species are cut from plants grown in a greenhouse. The cut leaf disks or segments are placed in multiwell plates (24-well format) onto water agar. The leaf disks are sprayed with a test solution before (preventative) or after (curative) inoculation. Compounds to be tested are prepared as DMSO solutions (max. 10 mg/ml) which are diluted to the appropriate concentration with 0.025% Tween20 just before spraying. The inoculated leaf disks or segments are incubated under defined conditions (temperature, relative humidity, light, etc.) according to the respective test system. A single evaluation of disease level is carried out 3 to 14 days after inoculation, depending on the pathosystem. Percent disease control relative to the untreated check leaf disks or segments is then calculated. Example 1: Fungicidal Activity Against Puccinia recondita f. Sp. Tritici/Wheat/Leaf Disc Preventative (Brown Rust) Wheat leaf segments cv. Kanzler were placed on agar in multiwell plates (24-well format) and sprayed with the formulated test compound diluted in water. The leaf disks were inoculated with a spore suspension of the fungus 1 day after application. The inoculated leaf segments were incubated at 19° C. and 75% relative humidity (rh) under a light regime of 12 hours light/12 hours darkness in a climate cabinet and the activity of a compound was assessed as percent disease control compared to untreated when an appropriate level of disease damage appears in untreated check leaf segments (7 to 9 days after application). The following compounds at 200 ppm in the applied formulation give at least 80% disease control in this test when compared to untreated control leaf disks under the same conditions, which show extensive disease development.

[4] = test system: Phakopsora pachyrhizi; test: Fungicidal activity against Phakopsora pachyrhizi / soybean / leaf disc preventative (Asian soybean rust); type: in vivo; conditions: foliar, 200 ppm in the applied formulation, soybean leaf disks, preventative (inoculated one day after application), assessed 12 to 14 days after application, compared to untreated, read-out: disease control
Method: Leaf disks or leaf segments of various plant species are cut from plants grown in a greenhouse. The cut leaf disks or segments are placed in multiwell plates (24-well format) onto water agar. The leaf disks are sprayed with a test solution before (preventative) or after (curative) inoculation. Compounds to be tested are prepared as DMSO solutions (max. 10 mg/ml) which are diluted to the appropriate concentration with 0.025% Tween20 just before spraying. The inoculated leaf disks or segments are incubated under defined conditions (temperature, relative humidity, light, etc.) according to the respective test system. A single evaluation of disease level is carried out 3 to 14 days after inoculation, depending on the pathosystem. Percent disease control relative to the untreated check leaf disks or segments is then calculated. Example 3: Fungicidal Activity Against Phakopsora pachyrhizi/Soybean/Leaf Disc Preventative (Asian Soybean Rust) Soybean leaf disks are placed on water agar in multiwell plates (24-well format) and sprayed with the formulated test compound diluted in water. One day after application leaf discs are inoculated by spraying a spore suspension on the lower leaf surface. After an incubation period in a climate cabinet of 24-36 hours in darkness at 20° C. and 75% rh leaf disc are kept at 20° C. with 12 h light/day and 75% rh. The activity of a compound is assessed as percent disease control compared to untreated when an appropriate level of disease damage appears in untreated check leaf disks (12 to 14 days after application). The following compounds at 200 ppm in the applied formulation give at least 80% disease control in this test when compared to untreated control leaf disks under the same conditions, which show extensive disease development.

[5] = test system: Uromyces viciae-fabael; test: Fungicidal activity against Uromyces viciae-fabae / field bean / leaf disc preventative (faba-bean rust); type: in vivo; conditions: foliar, 288 h, 100 ppm in the applied formulation, field bean leaf discs, preventative (inoculated two hours after application), assessed 12 days after application, compared to untreated, read-out: disease control
Method: Leaf disks or leaf segments of various plant species are cut from plants grown in a greenhouse. The cut leaf disks or segments are placed in multiwell plates (24-well format) onto water agar. The leaf disks are sprayed with a test solution before (preventative) or after (curative) inoculation. Compounds to be tested are prepared as DMSO solutions (max. 10 mg/ml) which are diluted to the appropriate concentration with 0.025% Tween20 just before spraying. The inoculated leaf disks or segments are incubated under defined conditions (temperature, relative humidity, light, etc.) according to the respective test system. A single evaluation of disease level is carried out 3 to 14 days after inoculation, depending on the pathosystem. Percent disease control relative to the untreated check leaf disks or segments is then calculated. Example 5: Fungicidal Activity Against Uromyces viciae-fabael Field Bean/Leaf Disc Preventative (Faba-Bean Rust) Field bean leaf discs are placed on water agar in multiwell plates (96-well format) and 10 μl of the formulated test compound diluted in acetone and a spreader pipetted onto the leaf disc. Two hours after application leaf discs are inoculated by spraying a spore suspension on the lower leaf surface. The leaf discs are incubated in a climate cabinet at 22° C. with 18 hour day and 70% relative humidity. The activity of a compound is assessed as percent disease control compared to untreated when an appropriate level of disease damage appears in untreated check leaf disks (12 days after application). The following compounds at 100 ppm in the applied formulation give at least 80% disease control in this test when compared to untreated control leaf discs under the same conditions, which show extensive disease development.

O=C(NCC1COCCO1)c1ccc(-c2noc(C(F)(F)F)n2)c(F)c1 (stereo not drawn) [Compound 1.12, N-(1,4-dioxan-2-ylmethyl)-3-fluoro-4-[5-(trifluoromethyl)-1,2,4-oxadiazol-3-yl]benzamide]
≥ 80%: pest or weed control at 200 ppm [1] | inhibition of growth at 20 ppm [2] | pest or weed control at 200 ppm [3] | pest or weed control at 200 ppm [4] | pest or weed control at 100 ppm [5]

O=C(NCC1CCOC1)c1ccc(-c2noc(C(F)(F)F)n2)c(F)c1 (stereo not drawn) [Compound 1.14, 3-fluoro-N-(tetrahydrofuran-3-ylmethyl)-4-[5-(trifluoromethyl)-1,2,4-oxadiazol-3-yl]benzamide]
≥ 80%: pest or weed control at 200 ppm [1] | inhibition of growth at 20 ppm [2] | pest or weed control at 200 ppm [3] | pest or weed control at 200 ppm [4] | pest or weed control at 100 ppm [5]

COCCN(Cc1ccccc1)C(=O)c1ccc(-c2noc(C(F)(F)F)n2)c(F)c1 [Compound 1.16, N-benzyl-3-fluoro-N-(2-methoxyethyl)-4-[5-(trifluoromethyl)-1,2,4-oxadiazol-3-yl]benzamide]
≥ 80%: pest or weed control at 200 ppm [1] | inhibition of growth at 20 ppm [2] | pest or weed control at 200 ppm [3] | pest or weed control at 200 ppm [4] | pest or weed control at 100 ppm [5]

O=C(NCC1CC1)c1ccc(-c2noc(C(F)(F)F)n2)c(F)c1 [Compound 1.20, N-(cyclo-propylmethyl)-3-fluoro-4-[5-(trifluoromethyl)-1,2,4-oxadiazol-3-yl]benzamide]
≥ 80%: pest or weed control at 200 ppm [1] | inhibition of growth at 20 ppm [2] | pest or weed control at 200 ppm [3] | pest or weed control at 200 ppm [4]

CC(NC(=O)c1ccc(-c2noc(C(F)(F)F)n2)c(F)c1)C1CC1 (stereo not drawn) [Compound 1.25, N-(1-cyclopropylethyl)-3-fluoro-4-[5-(trifluoromethyl)-1,2,4-oxadiazol-3-yl]benzamide]
≥ 80%: pest or weed control at 200 ppm [1] | inhibition of growth at 20 ppm [2] | pest or weed control at 200 ppm [3] | pest or weed control at 200 ppm [4] | pest or weed control at 100 ppm [5]

O=C(NC1(C2CC2)CC1)c1ccc(-c2noc(C(F)(F)F)n2)c(F)c1 [Compound 1.27, N-(1-cyclopropyl-cyclopropyl)-3-fluoro-4-[5-(trifluoromethyl)-1,2,4-oxadiazol-3-yl]benzamide]
≥ 80%: pest or weed control at 200 ppm [1] | inhibition of growth at 20 ppm [2] | pest or weed control at 200 ppm [3] | pest or weed control at 200 ppm [4] | pest or weed control at 100 ppm [5]

Cc1ccc(CNC(=O)c2ccc(-c3noc(C(F)(F)F)n3)c(F)c2)o1 [Compound 1.28, 3-fluoro-N-[(5-methyl-2-furyl)methyl]-4-[5-(trifluoromethyl)-1,2,4-oxadiazol-3-yl]benzamide]
≥ 80%: pest or weed control at 200 ppm [1] | inhibition of growth at 20 ppm [2] | pest or weed control at 200 ppm [3] | pest or weed control at 200 ppm [4] | pest or weed control at 100 ppm [5]

O=C(NCc1ccco1)c1ccc(-c2noc(C(F)(F)F)n2)c(F)c1 [Compound 1.31, 3-fluoro-N-(2-furylmethyl)-4-[5-(trifluoromethyl)-1,2,4-oxadiazol-3-yl]benzamide]
≥ 80%: pest or weed control at 200 ppm [1] | inhibition of growth at 20 ppm [2] | pest or weed control at 200 ppm [3] | pest or weed control at 200 ppm [4] | pest or weed control at 100 ppm [5]

O=C(NCCc1cccs1)c1ccc(-c2noc(C(F)(F)F)n2)c(F)c1 [Compound 1.35, 3-fluoro-N-[2-(2-thienyl)ethyl]-4-[5-(trifluoromethyl)-1,2,4-oxadiazol-3-yl]benzamide]
≥ 80%: pest or weed control at 200 ppm [1] | inhibition of growth at 20 ppm [2] | pest or weed control at 200 ppm [3] | pest or weed control at 200 ppm [4] | pest or weed control at 100 ppm [5]

CCCN(CC1CC1)C(=O)c1ccc(-c2noc(C(F)(F)F)n2)c(F)c1 [Compound 1.41, N-(cyclopropyl-methyl)-3-fluoro-N-propyl-4-[5-(trifluoromethyl)-1,2,4-oxadiazol-3-yl]benzamide]
≥ 80%: pest or weed control at 200 ppm [1] | inhibition of growth at 20 ppm [2] | pest or weed control at 200 ppm [4] | pest or weed control at 100 ppm [5]
